In a melting point compilation (Tetko et al.; mined from patent text by program, amines drawn as free bases though some values may be those of a salt):

| SMILES | melting point [°C] |
| --- | --- |
| CC(O)Cc1cc([N+](=O)[O-])cc(N)c1N (stereo not given) | 174 |
| CCc1ccccc1NS(=O)(=O)c1cc(S(=O)(=O)Nc2ccccc2CC)c2cc(O)ccc2c1 | 127 to 129 |
| CC(C)(C)OC(=O)N1CCCC(C(=O)OCC(=O)C(C)(C)C)(C(=O)OCc2ccccc2)C1 (stereo not given) | 60 |
| COc1cc2c(cc1OC)C(C=Cc1cccc(OC)c1OC)=NN(C(C)=O)C(C)C2 (stereo not given) | 72 to 74 |
| CC(C)Oc1ccc(CCCOc2cc(CCC(=O)O)n(-c3ccccc3)n2)c(Oc2ccc(C(F)(F)F)cn2)c1 | 80 to 82 |
| CCC(C)Nc1c(C(F)(F)F)cc([N+](=O)[O-])c(Cl)c1[N+](=O)[O-] (stereo not given) | 90.5 to 91.5 |
| O=C(NC(=O)C(Br)CBr)Nc1ccc(Cl)c(Cl)c1 (stereo not given) | 174 to 175 |
| Oc1ccc(C2=CCN(CCCN3CCOCC3)CC2)cc1 | 166 to 168 |
| C=CS(=O)(=O)CCCS(=O)(=O)C=C | 60 to 63 |
| O=C(O)CCc1cn(Cc2ccc(OCc3ccc(-c4ccccc4)cn3)cc2)cc1-c1ccccc1 | 169 to 170 |
| COCSc1nccn1-c1cccc(C(=O)CC(=O)Nc2cc(-c3ccccc3F)ccc2NC(=O)OC(C)(C)C)c1 | 83 to 86 |
| CC(=O)NC1CCCCC1CCC(=O)O (stereo not given) | 116 to 121 |
| COc1cc2c(cc1C)C(CCCN1CCN(C)CC1)(c1ccccc1F)C(=O)N2S(=O)(=O)c1ccc(OC(C)C)cc1 (stereo not given) | 70 |
| COc1cc(OC)c(SC(C)(C)CC(=O)O)c(OC)c1 | 103 to 105 |
| O=C1CN2Cc3cc(OCCCC(=O)N(CCCCCCOC(=O)c4ccccc4)C4CCCCC4)ccc3N=C2N1 | 94 to 95 |
| CCCCCCCC[C@]1(C)OO[C@@H]2C[C@H]1CC(=O)[C@@H]2C | 27 |
| S=c1c2cccnc2c(-c2cccc(Cl)c2)nn1Cc1ccccc1 | 132 |
| COc1ccccc1Nc1cccc2c1C(=O)N(C1CCC(=O)NC1=O)C2=O (stereo not given) | 223 to 225 |
| COc1ccc(Nc2nc(C)ncc2S(=O)(=O)c2ccc(OCc3ccccc3)cc2)c(C)n1 | 160 to 165 |
| COC(=O)c1c[nH]c(C=O)c1 | 97 to 99 |

| SMILES | melting point [°C] |
| --- | --- |
| CC(C)NCC(O)COc1cc(-c2ccccc2)nc2ccccc12 (racemic) | 109 to 111 |
| COc1ccc(S(=O)(=O)N(Cc2cccnc2)c2c(C(=O)O)cnc3cc(C)nn23)cc1 | 249 to 251 |
| CCC(C(O)c1ccc(Cl)cc1)n1ncn(-c2ccc(N3CCN(c4ccc(O)cc4)CC3)cc2)c1=O (stereo not given) | 270 |
| CCOC(=O)Nc1c(OC)cc(Cc2cnc(N)nc2N)cc1OC | 192 to 193 |
| CCO[C@@H](Cc1ccc(OCCc2nc(-c3ccc(C(F)(F)F)cc3)oc2C)c2ccccc12)C(=O)O | 153 to 155 |
| Cc1cc(C)cc(COC(=O)C(Cc2c[nH]c3ccccc23)NS(=O)(=O)c2ccccc2)c1 (stereo not given) | 114 to 116 |
| CCOC(=O)c1nc(C2CC2)nc(NCc2ccccc2)c1Cl | 59 to 61 |
| CCC(CC)n1cnc2c1c(=O)n(C)c(=O)n2-c1ccc(Cl)cc1Cl | 158 to 159 |
| O=Cc1ccccc1C(=O)c1ccc(Cl)cc1 | 112 to 113 |
| CN1CCN(c2ccc([N+](=O)[O-])cc2)C1=O | 207 to 208 |
| Cc1c(Cc2ccc(F)cc2)c(=O)oc2cc(OC(=O)N(C)c3ccccc3)ccc12 | 185 to 186 |
| Cc1nc2c(cc1C(=O)N(C(=N)N)C(=O)OC(C)(C)C)CCCCC2CO (stereo not given) | 98 to 100 |
| CC(C)(C)NS(=O)(=O)c1ccccc1C(=O)CF | 126 |
| N#CC1CN1C(=O)NC(=O)CC1CCCCC1 (stereo not given) | 142 to 144 |
| CCOC(=O)C1Oc2ccccc2Cc2ccccc2O1 | 86.5 to 88.5 |
| COC1=Cc2c(c(=O)[nH]c3ccc(OC)cc23)[C@@H](C)C1 | 153 to 157 |
| C=CCOc1ccc(C[C@@H](NC(C)=O)C(=O)OC)cc1 | 90 |
| Cc1ccc2[nH]cc(C(=O)[C@H]3CCCN3)c2c1 | 194 to 196 |
| CN1CC[C@@H](c2c(O)cc(O)c3c(=O)cc(-c4ccccc4Br)oc23)[C@@H]1CO | 235 to 237 |
| Cc1cc(Br)ccc1NC(=O)CC(=O)NCCO | 139 to 142 |

Results, then the molecule that gave them:

| melting point [°C] | SMILES |
| --- | --- |
| 82 | Cc1c(C=O)cccc1-n1cccc1 |
| 149 to 154 | Oc1ccc([C@H]2CC[C@@H](NCCOc3ccccc3)CC2)cc1 |
| 136 to 137 | Cc1cc(OCCO)c2ccccc2c1O |
| 60 | c1ccc(OCCSCc2nnc(-c3ccc(OCCN4CCSCC4)cc3)o2)cc1 |
| 38 to 39 | Cc1ccccc1NO |
| 46 to 47 | CCOC(=O)c1cc([N+](=O)[O-])cn1CCC(C)C |
| 146 to 148 | CCCc1c(OCCCOc2cccc(NC(=O)C(=O)O)c2C)ccc(C(C)=O)c1O |
| 78 to 80 | CCN(CC)CCn1nc2c3c(c(N)ccc31)Oc1ccccc1-2 |
| 154 to 155 | CC(=O)OC[C@H]1O[C@@H]2[C@@H](Sc3ccccc3N2C(=O)c2ccccc2)[C@@H](OC(C)=O)[C@@H]1OC(C)=O |
| 117 | O=C(Cc1ccsc1)Nc1ccc(Br)cn1 |
| 172 to 173 | C[C@H](COc1ccc(F)cc1)Nc1nc(Cl)nc2c1ncn2[C@@H]1O[C@H](CO)[C@@H](O)[C@H]1O |
| 267 to 268 | Cc1ccc(Cn2c(-c3ccc(C(O)(C(F)(F)F)C(F)(F)F)cc3)cc3ccccc3c2=O)cc1 |
| 153 to 155 | CCCCCCCNC(=O)Nc1ccc(N2CCOCC2)cc1C(=O)NCC1CCN(C(c2ccccc2)c2ccccc2)CC1 |
| 176 to 177 | COc1ccc(N2CCN(Cc3cnc(Cc4ccc(OC)c(OC)c4)c4cc(OC)c(OC)cc34)CC2)cc1 |
| 229 to 230 | O=C(O)c1cn(C2CC2)c2cc(N3CCC4(C3)OCCO4)c(F)cc2c1=O |
| 152 to 155 | O=C(Nc1cc(C(F)(F)F)cc2ncn(-c3ccccc3)c12)c1ccccc1 |
| 139 | Cc1cc(C)cc(C(=O)N2CCC(N3CCC(=C4c5ccccc5CCn5ccnc54)CC3)CC2Cc2ccccc2)c1 (stereo not given) |
| 133 to 135 | NC(=NO)c1ccc(NC(=O)CC(=O)N2CCC(OCC(=O)O)CC2)cc1 |
| 234 to 235 | CC(=O)OCC1OC(Oc2nc[nH]c2C(N)=O)C(OC(C)=O)C(OC(C)=O)C1OC(C)=O (stereo not given) |
| 119 to 121 | CC(C)(C)NC(=O)[C@@H]1C[C@H](Sc2ccccc2)CN1C(=O)OC(C)(C)C |
| > 250 | O=c1ccc2cnc(Nc3ccccn3)nc2n1C1CCCC1 |
| 60 to 75 | O=C(OCC1OC(n2cnc3c(NCC(c4ccccc4)c4ccccc4)ncnc32)C(OC(=O)c2ccccc2)C1OC(=O)c1ccccc1)c1ccccc1 (stereo not given) |
| > 400 | O=c1[nH][nH]c(=O)c2c(O)c3ccc([N+](=O)[O-])cc3nc12 |
| 370 | O=C1NC(=O)C2(c3ccc4ccc(O)nc4n3)C=CC=CC12 (stereo not given) |
| 43 to 45 | CCOC(=O)c1c(N)cc(C(F)(F)F)nc1C(F)(F)F |
| 160 to 162 | Nc1nc2ccc(C(O)C(CNC(=O)c3ccccc3)N3CCC(Cc4ccccc4)CC3)cc2s1 (stereo not given) |
| 145 to 146 | FC(F)(F)c1cccc(-c2nccc3nncn23)c1 |
| 144 to 145 | CCS(=O)(=O)NCC(O)(Cn1cncn1)c1ccc(Cl)cc1Cl (stereo not given) |

| melting point [°C] | SMILES |
| --- | --- |
| 132 | CC(=O)OCCCc1ccc(-c2ccc3cc(C(=O)OCc4ccccc4)ccc3c2)cc1C12CC3CC(CC(C3)C1)C2 |
| 250 | Cc1cc(-c2nc3c(s2)C(=O)c2ccccc2C3=O)oc1C |
| 166 to 168 | CCOP(=O)(/C=C/c1cn(-c2ccccc2)nc1OCc1ccc(OCc2nc(-c3cccc(OCC(=O)O)c3)oc2C)c(OC)c1)OCC |
| 215 to 217 | O=c1c2ccccc2nc(-c2cc(-c3ccc(Cl)cc3)c(N3CCOCC3)s2)n1-c1ccccc1Cl |
| 77 to 78 | CC(C)Cc1cc(C(=O)N2CCN(CC(C)C)CC2)ccc1OCc1ccc(F)cc1 |
| 198 to 202 | CC(C)(C)NCC(O)COc1cc(N)ccc1-c1ccc(=O)[nH]n1 (stereo not given) |
| 91 to 93 | Fc1cccc(OCc2nnc(-c3ccc4c(c3)CCO4)o2)c1 |
| 185 to 187 | CC(C)c1cccc(C(C)C)c1NC(=O)C(N)Cc1c[nH]c2ccccc12 (stereo not given) |
| 117 | C=CCC(C(=O)O)c1ccc(C(=O)c2cccs2)cc1 (stereo not given) |
| 110 to 112 | NC(=Nc1ccc(CCCC(=O)Oc2cccc(Nc3ccccc3)c2)cc1)c1cccs1 |
| 58 | CCOC(=O)COc1cc(C)sc1C#N |
| 212 to 213 | CCCCNC(=O)Nc1c(N)cccc1C(=O)NCC1CCN(C(c2ccccc2)c2ccccc2)CC1 |
| 182 to 184 | NC(=O)c1cnn2c1NCC=C2c1cccnc1 |
| 160 to 162 | Cn1c([N+](=O)[O-])cnc1-c1nc(CCl)cs1 |
| > 200 | O=C1CNc2ncc(I)cc2N1Cc1c(Cl)cccc1Cl |
| 145 | O=C(O)C[C@H]1CC[C@H](Sc2nc(C3OCCO3)n(Cc3cc4c(cc3Cl)OCO4)c2C(=O)O)CC1 |
| 210 to 211 | COc1ccc(Nc2ccc(Nc3ncnc4cc(-c5ccccc5)sc34)cc2)cc1 |
| 280 | O=C(O)c1ccc(Cl)c2c1[nH]c1ccccc12 |
| 78 to 80 | CCCCCCCS(=O)(=O)Oc1c(I)cc(I)cc1I |
| 116 to 118 | O=C(O)CCCCCCCCCCCCC(=O)ON1C(=O)CCC1=O |
| 135 to 138 | ClCc1c(Cl)c(Cl)c(Cl)c(CCl)c1Cl |
| 62 to 63.5 | CCCCCCCCCCCCCCCCC[C@H](C[C@H](O)[C@H](CC)C(=O)O)OCc1ccccc1 |
| 176 to 178 | O=C(OCCN1CCN(CCN2CCOCC2)CC1)c1ccc(O)cc1 |
| 100 to 102 | CCCCc1nn(-c2cc(NC(=O)COCC)ccc2Cl)c(=O)n1Cc1ccc(-c2ccccc2S(=O)(=O)NC(=O)OC(C)(C)C)cc1F |
| 228 to 231 | CCCc1nc(C)c2c(=O)[nH]c(C)nn12 |
| 257 to 259 | Cn1cnc(COc2nn3c(-c4ccccc4)nnc3cc2-c2ccco2)n1 |
| 97 to 99 | CCCC(=O)c1cnn(C)c1S(N)(=O)=O |
